The values below come from patent US20260085047A1, “TRIPHENYLAZOLE COMPOUND” (SHIRATORI PHARMACEUTICAL CO., LTD., priority 2022, published 2026).

The target in one test is T1, GST-FABP7 (Homo sapiens, UniProt O15540, K110R).
T1 construct: made in house; host or cells: E. coli BL21 (DE3)
T1 sequence (O15540 1-132 K110R): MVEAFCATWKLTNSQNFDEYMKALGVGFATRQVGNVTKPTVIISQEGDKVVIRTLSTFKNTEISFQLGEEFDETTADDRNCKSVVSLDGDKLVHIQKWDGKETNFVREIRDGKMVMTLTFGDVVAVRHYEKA
The experiment in a line: Evaluation of FABP ligand affinity using ANS (GST-FABP7). Conditions: ANS fluorescence displacement; mean±SE of three measurements; read-out: Kd value of FABP for each ligand, GST-FABP7. In kind it is binding, mouse. The procedure: (§1) GST-FABP3, GST-FABP4, GST-FABP5, and GST-FABP7 were each expressed in E. coli [BL21 (DE3) strain], and then affinity purification was performed using a glutathione column.
(§2) Cloning of GST-FABP3, GST-FABP4, GST-FABP5 and GST-FABP7 vectors was performed by the following method. After reverse transcription of mRNA isolated from mouse heart into cDNA, the FABP3 gene (RefSeqID: NM_010174.1) and FABP4 gene (RefSeqID: NM_024406.2) were each amplified by PCR. These cDNAs were each inserted between the BamHI/EcoRI cleavage sites of a pGEX-2T vector (GE HealthCare Japan, Tokyo) using a DNA ligation kit (Takara Bio, Kusatsu) and an In-fusion kit (Takara Bio USA, CA, USA) to prepare vectors.
(§3) Purification of GST-binding proteins was performed using a GST purification kit (Takara Bio USA). After the E. coli were collected by centrifugation, the provided extraction buffer and aluminum oxide powder were added, and the mixture was crushed in a mortar. The centrifuged supernatant was added to the provided glutathione column and allowed to stand on ice for 30 minutes. The supernatant in the column was then discarded, and washing was performed with extraction buffer, followed by elution with elution buffer containing glutathione. The protein concentration of the elution product was calculated from the absorbance at 280 nm and then used for the ANS assay. 1-anilinonaphthalene-8-sulfonic acid (ANS, final concentration: […], in a solution of 10 mM KH2PO4 and 40 mM KCl at pH 7.4), which binds to FABP proteins and emits fluorescence, and FABP proteins (final concentration: […]), as well as various ligands at concentrations of 0 nM, 100 nM, 1,000 nM, 2,000 nM, and 4,000 nM (final) were incubated for 2 min, and then the fluorescence of ANS was measured (Ex/Em=355 nm/460 nm). The fluorescence intensity at each ligand concentration was converted to a relative value (%) to the ANS fluorescence intensity in the absence of ligand, and then the dissociation constant Kd (nM) was calculated by […] using the following equation.
(§4) The Kd values in the above table are indicated as the mean±SE of three measurements. […] Example Compounds 1 to 5 in the table may also be referred to as Compounds 1 to 5, respectively.

Test [1] relates to MPTP-treated C57BL6 N mice (PD model animals). The experiment in a line: Passive avoidance task in PD model animals (MPTP). In kind it is in vivo, mouse. The note with it: 0.05, 0.1 and 0.3 mg/kg p.o. once daily for two weeks from Day 20, Day 34, FIG. 2.
For test [2], the system named is ICR mice, focal cerebral ischemia (tMCAO). The experiment in a line: Cerebral neuroprotection in focal cerebral ischemia model (tMCAO). Conditions: tMCAO 2 hours, 0.3 mg/kg orally after reperfusion. In kind it is in vivo, mouse. The protocol: Male ICR mice (5 weeks old, 25-30 g) were purchased from Japan SLC, Inc. (Shizuoka, Japan). The animals were reared under constant temperature and humidity conditions, in a 12-hour light/dark cycle (light on: 09:00-21:00), and fed ad libitum. All mice were anesthetized with a combination of 0.3 mg/kg medetomidine, 4.0 mg/kg midazolam, and 5.0 mg/kg butorphanol. A silicone-coated 6-0 suture (Doccol Corporation, USA) was inserted from the right external carotid artery into the internal carotid artery up to the origin of the middle cerebral artery, and left in place for 2 hours, then the suture was removed and reperfusion was performed to prepare a mouse model of focal cerebral ischemia (tMCAO). Mice in the sham surgery group underwent the same treatment except for the insertion of the suture. […] Regional cerebral blood flow (rCBF) was monitored by Laser-Doppler flowmetry (FLOC1, OMEGAWAVE, Tokyo, Japan) to confirm whether the right hemisphere was ischemic or not. […] Infarct volume was measured using ImageJ software and expressed as a percentage of the total hemisphere (corresponding to B in FIG. 19, E in FIG. 21, and H in FIG. 23. The vertical axis Neurological score in C of FIG. 19, F of FIG. 21, and I of FIG. 23 represents the neurological deficit. The vertical axis Survival rate (%) in FIG. 24 corresponds to the mouse survival rate). […]

A further test has as its target T2, GST-FABP3.
T2 construct: made in house; host or cells: E. coli BL21 (DE3)
Put plainly: Evaluation of FABP ligand affinity using ANS (GST-FABP3). In kind it is binding, mouse. Conditions: ANS fluorescence displacement; mean±SE of three measurements; read-out: Kd value of FABP for each ligand, GST-FABP3.

In a further test the target is T3, GST-FABP4.
T3 construct: made in house; host or cells: E. coli BL21 (DE3)
Put plainly: Evaluation of FABP ligand affinity using ANS (GST-FABP4). It counts as binding, mouse. The note with it: ANS fluorescence displacement; mean±SE of three measurements; read-out: Kd value of FABP for each ligand, GST-FABP4. The procedure: as §1, §2, §3, §4

The target in another test is T4, GST-FABP5.
T4 construct: made in house; host or cells: E. coli BL21 (DE3)
Put plainly: Evaluation of FABP ligand affinity using ANS (GST-FABP5). In kind it is binding, mouse. The note with it: ANS fluorescence displacement; mean±SE of three measurements; read-out: Kd value of FABP for each ligand, GST-FABP5. The procedure:
as §1, §2, §3

In test [3] the test system is MPTP-treated C57BL6 N mice (PD model animals). The experiment in a line: Novel object recognition task in PD model animals (MPTP). In kind it is in vivo, mouse. Conditions: 0.03, 0.1 and 0.3 mg/kg p.o. once daily for two weeks, Day 34, FIG. 3. The protocol:
In the novel object recognition task, objects of the same shape were placed to be memorized by the mice in the training trial, and in the test trial, one of the objects was replaced with a novel object, and the rate of contact with both objects (corresponding to the vertical axis Discrimination index (%) in FIG. 3) was evaluated.

For test [4] the test system is unchanged. Put plainly: Rotarod task in PD model animals (MPTP). In kind it is in vivo, mouse. The note with it: Example Compound 2 0.03, 0.1, 0.3 mg/kg or LIGAND 1 0.3 mg/kg, Day 34, 20 rpm, FIG. 4. (In general: Falling from the rotarod earlier than controls is read as motor impairment.)
For test [5] the test system is unchanged. The experiment in a line: Beam walking task in PD model animals (MPTP). Conditions: Example Compound 2 0.03, 0.1, 0.3 mg/kg or LIGAND 1 0.3 mg/kg, Day 34, FIG. 5. In kind it is in vivo, mouse. The protocol: In the beam walking task, the mice were placed on a thin board and allowed to walk, and the number of foot slips before reaching the goal box (corresponding to the vertical axis Number of foot slips in FIG. 5) was measured.

For test [6], the system named is dopaminergic neurons (TH+ cells) in SNpc and VTA. The experiment in a line: Dopaminergic neuroprotection: TH-positive cells in brain sections of PD model animals. It counts as in vivo, mouse. The note with it: MPTP mice; Example Compound 2 0.1, 0.3, 1.0 mg/kg or LIGAND 1 0.3 mg/kg; Day 34; FIGS. 6 to 9.
Description: (§5) The results for the substantia nigra region are shown in FIGS. 6, 7, 10, 11, 14, and 15, and for the ventrotegmental area in FIGS. 8, 9, 12, 13, 16, and 17 (the vertical axis Number of TH^+ cells in FIGS. 6 and 8 corresponds to the number of dopaminergic neurons. The vertical axis Number of double-positive cells/TH^+ positive cells (%) in FIGS. 11 and 13 corresponds to the percentage of dopaminergic neurons that contain phosphorylated α-synuclein. The vertical axis Triple-positive cells/TH-positive cells in FIGS. 15 and 17 corresponds to the percentage of dopaminergic neurons that contain both FABP3 and phosphorylated α-synuclein).
Test [7] has as its system FABP3 and phosphorylated α-synuclein. Put plainly: Double staining for phosphorylated α-synuclein and FABP3 in dopaminergic neurons of PD model animals. It counts as in vivo, mouse. Conditions: MPTP mice.
Description: as §5
For test [8], the system named is phosphorylated α-synuclein. The experiment in a line: Phosphorylated α-synuclein staining in dopaminergic neurons of PD model animals. The note with it: MPTP mice.
Description: as §5

The Kd is the constant that tells how readily two partners part at equilibrium.

T2 sequence (P05413 with tags, fused parts or gaps): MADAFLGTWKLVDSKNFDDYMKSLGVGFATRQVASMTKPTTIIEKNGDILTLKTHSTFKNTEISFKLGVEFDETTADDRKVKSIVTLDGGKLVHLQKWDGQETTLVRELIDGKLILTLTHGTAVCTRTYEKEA
T3 sequence (P15090 whole entry): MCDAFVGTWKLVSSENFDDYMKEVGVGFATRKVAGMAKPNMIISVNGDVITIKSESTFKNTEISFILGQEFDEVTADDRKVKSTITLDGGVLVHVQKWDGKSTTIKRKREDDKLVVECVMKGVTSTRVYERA
T4 sequence (Q01469 whole entry): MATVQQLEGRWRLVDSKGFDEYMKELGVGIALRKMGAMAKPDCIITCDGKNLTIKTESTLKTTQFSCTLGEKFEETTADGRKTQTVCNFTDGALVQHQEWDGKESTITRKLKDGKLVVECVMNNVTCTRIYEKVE

Turning to `O=C(O)CCCOc1ccc(F)cc1-c1cc(-c2ccccc2C(F)(F)F)n(-c2ccccc2)n1` [Example Compound 1, 4-(4-fluoro-2-(1-phenyl-5-(2-(trifluoromethyl)phenyl)-1H-pyrazol-3-yl)phenoxy)butanoic acid], the equilibrium dissociation constant (Kd) on GST-FABP7 is no less than 1000 µM. For the same compound, the “Passive avoidance task: time until entering the dark room (Latency)” value in test [1] is “concentration-dependent prolongation of the waiting time”. Further, in test [2] (FIG. 24), the “Mouse survival rate compared to Vehicle mice” value was “improved”. Moreover, the “Cerebral infarct volume compared to Vehicle mice” value in test [2] (TTC staining) is “reduced”.

Take `O=C(O)CCCOc1ccccc1-c1cc(-c2ccccc2C(F)(F)F)n(-c2ccccc2)n1` [Example Compound 2, 4-(2-(1-phenyl-5-(2-(trifluoromethyl)phenyl)-1H-pyrazol-3-yl)phenoxy)butanoic acid]: the Kd is 0.0117 ± 0.0188 µM at GST-FABP3, 0.104 ± 0.0363 µM at GST-FABP4, 0.189 ± 0.0245 µM on GST-FABP5 and 2.05 ± 0.0352 µM at GST-FABP7. For the same compound, the “Novel object recognition task: rate of contact with novel and known objects (Discrimination index)” value in test [3] is on record as “trend of improvement in cognitive function”. Moreover, the “Rotarod task: time until the mice fell (Latency), motor function” value in test [4] was “improvement in motor function was confirmed”. Besides, in test [5], the “Beam walking task: number of foot slips, motor function” value is recorded as “improvement in motor function was confirmed”. Also, the “Number of TH+ cells (dopaminergic neurons) in SNpc and VTA” value in test [6] is on record as “suppresses the decrease in dopaminergic neurons”. The “Localization of FABP3 and phosphorylated α-synuclein in dopaminergic neurons” value in test [7] (0.1, 0.3, 1.0 mg/kg, Day 34, SNpc and VTA, FIGS. 14 to 17) is listed as “reduced”. Besides, the “Interaction between phosphorylated α-synuclein and FABP3 in dopaminergic neurons, substantia nigra (SNpc)” value in test [7] (brain sections of SNpc, FIG. 15) is given as “inhibited”. The “Interaction between phosphorylated α-synuclein and FABP3 in dopaminergic neurons, ventrotegmental area (VTA)” value in test [7] (brain sections of VTA, FIG. 17) is given as “inhibited”. In test [8] (0.1, 0.3, 1.0 mg/kg, Day 34, SNpc and VTA, FIGS. 10 to 13), the “Phosphorylation level of α-synuclein in dopaminergic neurons” value is on record as “reduced”. In addition, the “Protection of dopaminergic neurons from the toxicity of phosphorylated α-synuclein, substantia nigra (SNpc)” value in [8] (brain sections of SNpc, FIG. 11) is recorded as “protected dopaminergic neurons”. The “Protection of dopaminergic neurons from the toxicity of phosphorylated α-synuclein, ventrotegmental area (VTA)” value in test [8] (brain sections of VTA, FIG. 13) is reported as “protected dopaminergic neurons”.

With `O=C(O)CCCOc1ccccc1-c1nc(-c2ccccc2C(F)(F)F)n(-c2ccccc2)n1` [Example Compound 3, 4-(2-(1-phenyl-5-(2-(trifluoromethyl)phenyl)-1H-1,2,4-triazol-3-yl)phenoxy)butanoic acid], the dissociation constant Kd on GST-FABP3 was 0.16 ± 0.0341 µM; at GST-FABP4, 0.369 ± 0.0441 µM; at GST-FABP7 it was no less than 1000 µM.

As for `CC(C)c1ccc(-n2nc(-c3cc(F)ccc3OCCCC(=O)O)cc2-c2ccccc2C(F)(F)F)cc1` [Example Compound 4, 4-(4-fluoro-2-(1-(4-isopropylphenyl)-5-(2-(trifluoromethyl)phenyl)-1H-pyrazol-3-yl)phenoxy)butanoic acid], the equilibrium dissociation constant (Kd) was 0.113 ± 0.0031 µM on GST-FABP3, 2.18 ± 0.458 µM at GST-FABP4, 1.35 ± 0.204 µM at GST-FABP5 and no less than 1000 µM on GST-FABP7.

In the case of `CC(C)c1ccc(-n2nc(-c3ccccc3OCCCC(=O)O)cc2-c2ccccc2C(F)(F)F)cc1` [Example Compound 5, 4-(2-(1-(4-isopropylphenyl)-5-(2-(trifluoromethyl)phenyl)-1H-pyrazol-3-yl)phenoxy)butanoic acid], the dissociation constant (Kd) at GST-FABP3 is 0.0548 ± 0.0045 µM; at GST-FABP4 it was 0.434 ± 0.0109 µM; at GST-FABP5 it was 1.82 ± 0.392 µM; on GST-FABP7 it was no less than 1000 µM.
